Measured values as given in US8129534B2, “Chemical compounds” (priority 2004, dated 2012).

melting point | SMILES
69 to 70 °C | O=C(Nc1ccnn1C1CCN(C/C=C/c2ccc(Cl)cc2)CC1)c1ccnc(Cl)c1
78 to 80 °C | O=C(Nc1cccnc1C1CCN(C/C=C/c2ccc(Cl)cc2)CC1)c1ccnc(Cl)c1
75 to 77 °C | O=C(Nc1cccnc1C1=CCN(C/C=C/c2ccc(Cl)cc2)CC1)c1ccnc(Cl)c1
